Test [1] can be described thus: Intestinal calcium transport, everted gut sac method, in vitamin D-deficient rats. It counts as in vivo, rat. Particulars: FIG. 5; for intestinal calcium transport: everted gut sac. The protocol:
(§1) Male, weanling Sprague-Dawley rats were placed on Diet 11 (0.47% Ca) diet+AEK for one week followed by Diet 11 (0.02% Ca)+AEK for 3 weeks. The rats were then switched to a diet containing 0.47% Ca for one week followed by two weeks on a diet containing 0.02% Ca. Dose administration began during the last week on 0.02% calcium diet. Four consecutive ip doses were given approximately 24 hours apart. Twenty-four hours after the last dose, blood was collected from the severed neck and the concentration of serum calcium determined as a measure of bone calcium mobilization. The first 10 cm of the intestine was also collected for intestinal calcium transport analysis using the everted gut sac method.

Test [2] relates to 24-hydroxylase (24Ohase) gene promoter. Kind of test: In vitro transcription assay, luciferase reporter in ROS 17/2.8 (bone) cells. The note with it: FIG. 3; for EC50: ROS 17/2.8 cells, read-out: EC50, transcriptional activity in bone cells. It counts as cell-based. The procedure:
Transcription activity was measured in ROS 17/2.8 (bone) cells that were stably transfected with a 24-hydroxylase (24Ohase) gene promoter upstream of a luciferase reporter gene (Arbour et al., 1998). Cells were given a range of doses. Sixteen hours after dosing the cells were harvested and luciferase activities were measured using a luminometer.
RLU=Relative Luciferase Units.
On the technique in general: A reporter such as luciferase makes a cellular process visible.

Test [3] can be described thus: Bone calcium mobilization (serum calcium) in vitamin D-deficient rats. It counts as in vivo, rat. Particulars: FIG. 4; for bone calcium mobilization: ip. The procedure:
as §1

The target of test [4] is T1, full-length recombinant rat vitamin D receptor (Rattus norvegicus, UniProt P13053).
T1 construct: Full-length recombinant rat receptor was expressed in E. coli BL21 (DE3) Codon Plus RIL cells; His tag (C); made in house; host or cells: E. coli BL21 (DE3) Codon Plus RIL
T1 sequence (P13053 1-423): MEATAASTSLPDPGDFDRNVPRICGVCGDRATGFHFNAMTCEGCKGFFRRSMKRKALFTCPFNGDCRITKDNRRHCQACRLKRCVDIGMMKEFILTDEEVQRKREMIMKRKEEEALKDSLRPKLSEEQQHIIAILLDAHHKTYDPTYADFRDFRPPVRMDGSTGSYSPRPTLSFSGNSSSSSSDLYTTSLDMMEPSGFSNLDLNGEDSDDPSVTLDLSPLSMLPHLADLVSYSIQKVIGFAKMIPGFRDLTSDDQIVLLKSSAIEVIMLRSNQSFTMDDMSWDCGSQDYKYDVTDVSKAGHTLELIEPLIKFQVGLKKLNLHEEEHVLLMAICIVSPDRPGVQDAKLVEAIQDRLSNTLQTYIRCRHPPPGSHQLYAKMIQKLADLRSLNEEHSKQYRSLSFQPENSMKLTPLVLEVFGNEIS
Kind of test: Vitamin D receptor binding, competition with [3H]-1,25(OH)2D3. The note with it: FIG. 1. The protocol: Full-length recombinant rat receptor was expressed in E. coli BL21 (DE3) Codon Plus RIL cells and purified to homogeneity using two different column chromatography systems. The first system was a nickel affinity resin that utilizes the C-terminal histidine tag on this protein. The protein that was eluted from this resin was further purified using ion exchange chromatography (S-Sepharose Fast Flow). Aliquots of the purified protein were quick frozen in liquid nitrogen and stored at −80° C. until use. For use in binding assays, the protein was diluted in TEDK50 (50 mM Tris, 1.5 mM EDTA, pH7.4, 5 mM DTT, 150 mM KCl) with 0.1% Chaps detergent. The receptor protein and ligand concentration were optimized such that no more than 20% of the added radiolabeled ligand was bound to the receptor.
Radiolabeled and unlabeled ligands were added to 100 mcl of the diluted protein at a final ethanol concentration of ≦10%, mixed and incubated overnight on ice to reach binding equilibrium. The following day, 100 mcl of hydroxylapatite slurry (50%) was added to each tube and mixed at 10-minute intervals for 30 minutes. The hydroxylapaptite was collected by centrifugation and then washed three times with Tris-EDTA buffer (50 mM Tris, 1.5 mM EDTA, pH 7.4) containing 0.5% Titron X-100. […] Total binding was determined from the tubes containing only radiolabeled ligand.

For test [5], the system named is HL-60 cells. Kind of test: HL-60 differentiation (nitro blue tetrazolium reduction assay). It counts as cell-based, human. The note with it: FIG. 2; for EC50: read-out: EC50, HL-60 cell differentiation. The procedure:
The study drugs were dissolved in ethanol and the concentrations determined using UV spectrophotometry. Serial dilutions were prepared so that a range of drug concentrations could be tested without changing the final concentration of ethanol (≦0.2%) present in the cell cultures.
Human promyelocytic leukemia (HL60) cells were grown in RPMI-1640 medium containing 10% fetal bovine serum. The cells were incubated at 37° C. in the presence of 5% CO2.
HL60 cells were plated at 1.2×10^5 cells/ml. Eighteen hours after plating, cells in duplicate were treated with drug. Four days later, the cells were harvested and a nitro blue tetrazolium reduction assay was performed (Collins et al., 1979; J. Exp. Med. 149:969-974). The percentage of differentiated cells was determined by counting a total of 200 cells and recording the number that contained intracellular black-blue formazan deposits. Verification of differentiation to monocytic cells was determined by measuring phagocytic activity (data not shown).

Like-named read-outs stand apart in the source and are kept apart here.

The EC50 is the midpoint of the concentration-response curve. One may read the Ki as the dissociation constant of the complex between target and ligand, obtained from inhibition or displacement. In the case of `C=C1[C@H](O)CC(=C/C=C2\CCC[C@]3(C)[C@@H]([C@@H](C)/C=C/C[C@H](C)O)CC[C@@H]23)C[C@H]1O` [SS-22, 2-methylene-(20S,25S)-19,27-dinor-(22E)-1α,25-dihydroxyvitamin D3], the intestinal calcium transport result in test [1] (260 pmol/day) is reported as “promotes intestinal calcium transport only slightly”; in test [1] (7020 pmol/day), “significant intestinal calcium transport activity was recorded”. The “intestinal calcium transport activity compared to 1,25(OH)2D3” value in test [1] (in words, overall) is reported as “very little activity”. The EC50 was 100 pM in test [2] and 1000 pM in test [5] (Homo sapiens, HL-60). Moreover, the “transcriptional activity in bone cells compared to 1α,25-dihydroxyvitamin D3” value in test [2] (in words) was “about the same transcriptional activity”. Besides, the bone calcium mobilization entry is recorded as “did not result in mobilization of bone calcium” in test [3] (260 pmol/day for 4 consecutive days, rats on low calcium diet (0.02%)) and “without any substantial effect” in test [3] (7020 pmol/day, rats on low calcium diet (0.02%)). In addition, in test [3] (in words, overall), the “bone calcium mobilization activity compared to 1,25(OH)2D3” value is “very little bone calcium mobilization activity”. In test [4] (full-length recombinant rat VDR), the Ki is 300 pM. Besides, the “binding to the receptor compared to 1,25-(OH)2D3” value in test [4] (in words) is reported as “bound equally to the receptor”. The “potency on HL-60 cell differentiation compared to 1,25(OH)2D3” value in test [5] (in words) is listed as “as potent as 1,25(OH)2D3”.

As to `C=C1/C(=C\C=C2/CCC[C@]3(C)[C@@H]([C@H](C)CCCC(C)(C)O)CC[C@@H]23)C[C@@H](O)C[C@@H]1O` [1,25(OH)2D3, 1α,25-dihydroxyvitamin D3, reference compound], the intestinal calcium transport result in test [1] (260 pmol/day) is on record as “promotes a significant increase”. Besides, the EC50 is 200 pM in test [2] and 2000 pM in test [5]. In addition, the serum calcium levels entry in test [3] (all dosages, rats on low calcium diet (0.02%)) is given as “increased serum calcium levels at all dosages”.
